From publication PMC9873571, “Plant-specific features of respiratory supercomplex I + III2 from Vigna radiata” (Nature Plants, 2022) come the findings set out here.

In experiment [1] the target is T1, V. radiata complex I (CI), NADH dehydrogenase site (Vigna radiata, UniProt A0A1S3V7V2).
T1 construct: gene LOC106772405; native complex I, in purified supercomplex I + III2 (NADH) or in washed mitochondrial membranes (dNADH)
Put plainly: NADH-cytochrome c oxidoreductase activity of purified SC I + III2. It is filed as biochemical. As to conditions: 10 µM NADH, 100 µM decylubiquinone, 100 µM equine cyt c, pH 7.4.

In experiment [2] the target is T2, V. radiata SC I + III2 (complex I, quinone-binding site) (Vigna radiata, UniProt A0A1S3U8J5+E9KZL0+E9KZN6).
T2 construct: gene nad7; native complex I (14 core + 34 accessory subunits) in supercomplex I + III2, from etiolated hypocotyl mitochondria, digitonin-extracted, amphipol A8-35 stabilized, SEC purified; assayed as NADH-cyt c oxidoreductase; nad1 and NDUS2 transcripts RNA-edited
Put plainly: NADH-cytochrome c oxidoreductase activity, A550. It is filed as biochemical. The conditions noted are these: 20 mM HEPES pH 7.4, 50 mM NaCl, 10% glycerol, 100 µM decylubiquinone, 100 µM equine cyt c, 10 µM NADH, 4 μM KCN.

Structures are written as SMILES.

T1 sequence (A0A1S3V7V2 28-491): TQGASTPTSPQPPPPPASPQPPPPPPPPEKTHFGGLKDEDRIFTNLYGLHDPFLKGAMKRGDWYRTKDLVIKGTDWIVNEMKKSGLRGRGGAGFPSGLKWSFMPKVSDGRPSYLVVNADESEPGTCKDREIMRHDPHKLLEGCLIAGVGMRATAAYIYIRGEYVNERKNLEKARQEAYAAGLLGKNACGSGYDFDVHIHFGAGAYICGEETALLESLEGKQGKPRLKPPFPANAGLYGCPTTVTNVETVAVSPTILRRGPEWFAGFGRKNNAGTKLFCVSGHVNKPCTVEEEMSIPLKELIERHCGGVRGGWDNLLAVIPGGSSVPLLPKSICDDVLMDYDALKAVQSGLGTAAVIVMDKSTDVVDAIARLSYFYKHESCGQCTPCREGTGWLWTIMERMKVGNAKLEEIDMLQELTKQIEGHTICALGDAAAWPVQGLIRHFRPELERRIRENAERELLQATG
T1 sequence (A0A1S3TQ85 32-746 partner): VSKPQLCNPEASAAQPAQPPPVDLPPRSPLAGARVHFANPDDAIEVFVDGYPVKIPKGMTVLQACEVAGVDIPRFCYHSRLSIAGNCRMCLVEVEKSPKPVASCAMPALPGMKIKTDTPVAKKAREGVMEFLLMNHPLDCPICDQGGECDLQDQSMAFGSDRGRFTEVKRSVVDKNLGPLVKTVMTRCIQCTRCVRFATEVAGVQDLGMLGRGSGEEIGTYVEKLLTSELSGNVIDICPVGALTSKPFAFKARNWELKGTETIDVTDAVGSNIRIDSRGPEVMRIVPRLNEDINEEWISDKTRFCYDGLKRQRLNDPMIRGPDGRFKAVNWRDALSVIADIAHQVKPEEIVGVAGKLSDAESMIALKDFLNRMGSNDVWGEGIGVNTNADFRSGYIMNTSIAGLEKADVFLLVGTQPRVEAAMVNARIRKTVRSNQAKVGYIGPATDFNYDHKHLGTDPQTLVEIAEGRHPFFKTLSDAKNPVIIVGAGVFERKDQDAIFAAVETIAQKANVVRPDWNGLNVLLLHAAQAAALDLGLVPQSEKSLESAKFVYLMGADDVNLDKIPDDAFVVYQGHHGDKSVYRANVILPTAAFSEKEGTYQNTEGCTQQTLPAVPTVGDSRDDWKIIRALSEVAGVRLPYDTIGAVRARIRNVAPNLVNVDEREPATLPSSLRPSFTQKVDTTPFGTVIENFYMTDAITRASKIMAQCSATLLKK
T1 sequence (A0A1S3U769 25-251 partner): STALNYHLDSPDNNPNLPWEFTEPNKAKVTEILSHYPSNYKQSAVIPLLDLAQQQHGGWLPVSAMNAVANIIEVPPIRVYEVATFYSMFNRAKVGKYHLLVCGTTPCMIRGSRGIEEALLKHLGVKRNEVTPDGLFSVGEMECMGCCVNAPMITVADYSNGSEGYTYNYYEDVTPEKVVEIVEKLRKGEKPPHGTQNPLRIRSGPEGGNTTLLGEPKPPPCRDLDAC
T2 sequence (E9KZN6 entry or part of it): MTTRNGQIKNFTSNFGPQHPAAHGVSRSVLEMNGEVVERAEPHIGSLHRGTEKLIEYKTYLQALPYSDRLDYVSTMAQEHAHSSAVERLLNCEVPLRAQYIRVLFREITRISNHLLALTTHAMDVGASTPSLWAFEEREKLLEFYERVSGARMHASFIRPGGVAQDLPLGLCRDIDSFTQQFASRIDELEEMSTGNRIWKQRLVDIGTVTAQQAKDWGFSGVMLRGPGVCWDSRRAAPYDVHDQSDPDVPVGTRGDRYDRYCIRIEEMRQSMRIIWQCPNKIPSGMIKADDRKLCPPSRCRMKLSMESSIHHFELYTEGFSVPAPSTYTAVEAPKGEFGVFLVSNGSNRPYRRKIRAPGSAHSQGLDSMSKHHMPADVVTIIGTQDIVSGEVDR
T2 sequence (E9KZL0 entry or part of it): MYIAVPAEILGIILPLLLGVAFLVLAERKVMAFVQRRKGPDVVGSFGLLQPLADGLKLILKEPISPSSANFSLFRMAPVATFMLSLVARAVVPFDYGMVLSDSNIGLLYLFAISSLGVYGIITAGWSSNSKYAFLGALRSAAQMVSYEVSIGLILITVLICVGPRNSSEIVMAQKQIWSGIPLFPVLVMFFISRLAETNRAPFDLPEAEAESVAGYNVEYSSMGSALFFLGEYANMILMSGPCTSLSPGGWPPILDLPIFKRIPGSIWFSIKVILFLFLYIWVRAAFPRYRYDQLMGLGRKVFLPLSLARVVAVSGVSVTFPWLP
T2 sequence (A0A1S3U8J5 entry or part of it): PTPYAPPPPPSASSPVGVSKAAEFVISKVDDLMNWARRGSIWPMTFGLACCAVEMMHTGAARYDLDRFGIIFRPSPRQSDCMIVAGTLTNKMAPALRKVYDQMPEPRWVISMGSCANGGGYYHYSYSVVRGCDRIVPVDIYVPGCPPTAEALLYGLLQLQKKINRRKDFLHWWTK

Take `NC(=O)C1=CN([C@@H]2O[C@H](COP(=O)(O)OP(=O)(O)OC[C@H]3O[C@@H](n4cnc5c(N)ncnc54)[C@H](O)[C@@H]3O)[C@@H](O)[C@H]2O)C=CC1` [NADH]: in experiment [1], the “NADH-cytochrome c oxidoreductase activity of purified SC I + III2” value was “The final biochemical sample showed the expected NADH-cyt c oxidoreductase activity”.
With `C/C=C(\C)[C@H](O)[C@H](C)/C=C(C)/C=C/C/C(C)=C/Cc1nc(OC)c(OC)c(O)c1C` [piericidin A], in experiment [2], the “inhibition at 20 μM” value was “inhibited by CI and CIII2 inhibitors piericidin A and antimycin A, respectively”.
